Source: patent US20250206730A1 (AUTOTELIC BIO INC., priority 2022, published 2025)

Columns and labels:
[1] = biological target: T1, ALK5 kinase (Homo sapiens, UniProt P36897); experiment: LanthaScreen Eu Kinase Binding Assay; conditions: Kinase Tracer 178, Eu-anti-GST Antibody, read-out: IC50 Enzyme
T1 sequence (P36897 34-503): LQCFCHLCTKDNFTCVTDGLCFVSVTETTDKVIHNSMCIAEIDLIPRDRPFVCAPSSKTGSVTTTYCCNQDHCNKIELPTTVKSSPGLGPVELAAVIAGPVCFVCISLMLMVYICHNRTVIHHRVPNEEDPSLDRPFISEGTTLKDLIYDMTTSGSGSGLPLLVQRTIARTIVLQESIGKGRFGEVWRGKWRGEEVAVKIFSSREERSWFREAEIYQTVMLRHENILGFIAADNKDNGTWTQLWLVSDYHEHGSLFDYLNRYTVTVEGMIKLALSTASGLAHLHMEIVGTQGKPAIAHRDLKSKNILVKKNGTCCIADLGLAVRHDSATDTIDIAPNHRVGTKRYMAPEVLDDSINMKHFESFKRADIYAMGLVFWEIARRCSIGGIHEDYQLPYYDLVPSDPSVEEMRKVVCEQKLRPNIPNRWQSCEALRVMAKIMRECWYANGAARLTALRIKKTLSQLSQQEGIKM
Summary of the method: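 Tracer-displacement TR-FRET: after 30 min RT compound–kinase preincubation, Eu-labelled anti-GST antibody plus Kinase Tracer 178 were incubated 60 min at RT. Binding was read as a lower 665 nm/615 nm emission ratio (excitation 340 nm).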

[2] = test system: TGF-β signaling; experiment: Assay for evaluating cellular inhibition of TGF-β signaling, 4T1 (SBE-luc2P) luciferase reporter; assay type: cell-based; conditions: Mus musculus, 4T1, 4T1 (SBE-luc2P) transient pool, 0.2% FBS, 2 h pre-treatment, TGF-β1 2 ng/mL 24 h; read-out: IC50 4T1 Cell
Summary of the method: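 Luminescence from SMAD-binding-element luciferase was measured after 24 h of 2 ng/mL TGF-β1 at 37 °C, following 2 h compound pre-treatment. HEK293 stable reporter cells were used at 2.5×10^4/well in 0.5% FBS (~80% confluent); the 4T1 SBE-luc2P transient pool at 6×10^3/well in 0.2% FBS (~60% confluent).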

SMILES | IC50 [1] [nM] | IC50 [2] [nM]
CCc1nc(-c2ccccc2)c(Oc2ccnc(Nc3cccc(C(N)=O)c3)c2)s1 [A-183, 3-((4-((2-Ethyl-4-phenylthiazol-5-yl)oxy)pyridin-2-yl)amino)benzamide] | < 100 | < 100
CCc1nc(-c2ccccc2)c(Oc2ccnc(Nc3ccc(S(N)(=O)=O)cc3)c2)s1 [A-184, 4-((4-((2-Ethyl-4-phenylthiazol-5-yl)oxy)pyridin-2-yl)amino)benzenesulfonamide] | < 100 | > 100
CCc1nc(-c2ccccc2)c(Oc2ccnc(Nc3ccc(C(N)=O)cc3)c2)s1 [A-185, 4-((4-((2-Ethyl-4-phenylthiazol-5-yl)oxy)pyridin-2-yl)amino)benzamide] | < 100 | > 100
CCc1nc(-c2ccccc2)c(Oc2ccnc(Nc3ccnc(C(C)(C)O)c3)c2)s1 [A-186, 2-(4-((4-((2-Ethyl-4-phenylthiazol-5-yl)oxy)pyridin-2-yl)amino)pyridin-2-yl)propan-2-ol] | < 100 | < 100
CCc1nc(-c2ccccc2)c(Oc2ccnc(Nc3ccc(C(C)(C)O)nc3)c2)s1 [A-187, 2-(5-((4-((2-Ethyl-4-phenylthiazol-5-yl)oxy)pyridin-2-yl)amino)pyridin-2-yl)propan-2-ol] | < 100 | > 100
CCc1nc(-c2ccccc2)c(Oc2ccnc(Nc3cccc(NS(=O)(=O)CC)c3)c2)s1 [A-188, N-(3-((4-((2-Ethyl-4-phenylthiazol-5-yl)oxy)pyridin-2-yl)amino)phenyl)ethanesulfonamide] | < 100 | < 100
CCc1nc(-c2ccccc2)c(Oc2ccnc(Nc3ccc(C(=O)NC)cc3)c2)s1 [A-189, 4-((4-((2-Ethyl-4-phenylthiazol-5-yl)oxy)pyridin-2-yl)amino)-N-methylbenzamide] | < 100 | < 100
CCc1nc(-c2ccccc2)c(Oc2ccnc(Nc3ccc(C(N)=O)cn3)c2)s1 [A-190, 6-((4-((2-Ethyl-4-phenylthiazol-5-yl)oxy)pyridin-2-yl)amino)nicotinamide] | < 100 | < 100
CCc1nc(-c2ccccc2)c(Oc2ccnc(Nc3ccc(C(=O)O)cn3)c2)s1 [A-192, 6-((4-((2-Ethyl-4-phenylthiazol-5-yl)oxy)pyridin-2-yl)amino)nicotinic acid] | < 100 | < 100
CCc1nc(-c2ccccc2)c(Oc2ccnc(Nc3ccc(C(=O)NC)cn3)c2)s1 [A-193, 6-((4-((2-Ethyl-4-phenylthiazol-5-yl)oxy)pyridin-2-yl)amino)-N-methylnicotinamide] | < 100 | < 100
CCc1nc(-c2ccccc2)c(Oc2ccnc(Nc3cccc(C(=O)O)c3)c2)s1 [A-194, 3-((4-((2-Ethyl-4-phenylthiazol-5-yl)oxy)pyridin-2-yl)amino)benzoic acid] | < 100 | > 100
CCc1nc(-c2ccccc2)c(Oc2ccnc(Nc3ccc(C(=O)O)cc3)c2)s1 [A-195, 4-((4-((2-Ethyl-4-phenylthiazol-5-yl)oxy)pyridin-2-yl)amino)benzoic acid] | < 100 | < 100
CC(C)c1nc(-c2ccccc2)c(Oc2ccnc(Nc3cccc(C(=O)O)n3)c2)s1 [A-217, 6-((4-((2-Isopropyl-4-phenylthiazol-5-yl)oxy)pyridin-2-yl)amino)picolinic acid] | > 100 | > 100
CC(C)c1nc(-c2ccccc2)c(Oc2ccnc(Nc3cccc(S(N)(=O)=O)c3)c2)s1 [A-218, 3-((4-((2-Isopropyl-4-phenylthiazol-5-yl)oxy)pyridin-2-yl)amino)benzenesulfonamide] | > 100 | > 100
CC(C)c1nc(-c2ccccc2)c(Oc2ccnc(Nc3cccc(C(C)(C)O)c3)c2)s1 [A-219, 2-(3-((4-((2-Isopropyl-4-phenylthiazol-5-yl)oxy)pyridin-2-yl)amino)phenyl)propan-2-ol] | > 100 | > 100
CC(C)c1nc(-c2ccccc2)c(Oc2ccnc(Nc3cccc(C(N)=O)c3)c2)s1 [A-220, 3-((4-((2-Isopropyl-4-phenylthiazol-5-yl)oxy)pyridin-2-yl)amino)benzamide] | < 100 | > 100
CC(C)c1nc(-c2ccccc2)c(Oc2ccnc(Nc3ccc(S(N)(=O)=O)cc3)c2)s1 [A-221, 4-((4-((2-Isopropyl-4-phenylthiazol-5-yl)oxy)pyridin-2-yl)amino)benzenesulfonamide] | < 100 | > 100

SMILES | IC50 [1] [nM] | IC50 [2] [nM]
CC(C)c1nc(-c2ccccc2)c(Oc2ccnc(Nc3ccc(C(N)=O)cc3)c2)s1 [A-222, 4-((4-((2-Isopropyl-4-phenylthiazol-5-yl)oxy)pyridin-2-yl)amino)benzamide] | > 100 | > 100
CC(C)c1nc(-c2ccccc2)c(Oc2ccnc(Nc3ccnc(C(C)(C)O)c3)c2)s1 [A-223, 2-(4-((4-((2-Isopropyl-4-phenylthiazol-5-yl)oxy)pyridin-2-yl)amino)pyridin-2-yl)propan-2-ol] | < 100 | > 100
CC(C)c1nc(-c2ccccc2)c(Oc2ccnc(Nc3ccc(C(C)(C)O)nc3)c2)s1 [A-224, 2-(5-((4-((2-Isopropyl-4-phenylthiazol-5-yl)oxy)pyridin-2-yl)amino)pyridin-2-yl)propan-2-ol] | < 100 | > 100
CNC(=O)c1cccc(Nc2cc(Oc3sc(C(C)C)nc3-c3ccccc3)ccn2)n1 [A-225, 6-((4-((2-Isopropyl-4-phenylthiazol-5-yl)oxy)pyridin-2-yl)amino)-N-methylpicolinamide] | < 100 | < 100
CC(C)c1nc(-c2ccccc2)c(Oc2ccnc(Nc3cccc(C(N)=O)n3)c2)s1 [A-226, 6-((4-((2-Isopropyl-4-phenylthiazol-5-yl)oxy)pyridin-2-yl)amino)picolinamide] | < 100 | > 100
CC(C)c1nc(-c2ccccc2)c(Oc2ccnc(Nc3ccc(C(N)=O)cn3)c2)s1 [A-227, 6-((4-((2-Isopropyl-4-phenylthiazol-5-yl)oxy)pyridin-2-yl)amino)nicotinamide] | < 100 | < 100
CNC(=O)c1ccc(Nc2cc(Oc3sc(C(C)C)nc3-c3ccccc3)ccn2)nc1 [A-228, 6-((4-((2-Isopropyl-4-phenylthiazol-5-yl)oxy)pyridin-2-yl)amino)-N-methylnicotinamide] | < 100 | < 100
CNC(=O)c1ccc(Nc2cc(Oc3sc(C(C)C)nc3-c3ccccc3)ccn2)cc1 [A-229, 4-((4-((2-Isopropyl-4-phenylthiazol-5-yl)oxy)pyridin-2-yl)amino)-N-methylbenzamide] | < 100 | > 100
CC(C)c1nc(-c2ccccc2)c(Oc2ccnc(Nc3cccc(C(=O)O)c3)c2)s1 [A-230, 3-((4-((2-Isopropyl-4-phenylthiazol-5-yl)oxy)pyridin-2-yl)amino)benzoic acid] | < 100 | > 100
CC(C)c1nc(-c2ccccc2)c(Oc2ccnc(Nc3ccc(C(=O)O)cc3)c2)s1 [A-231, 4-((4-((2-Isopropyl-4-phenylthiazol-5-yl)oxy)pyridin-2-yl)amino)benzoic acid] | < 100 | < 100
CC(C)c1nc(-c2ccccc2)c(Oc2ccnc(Nc3ccc(C(=O)O)cn3)c2)s1 [A-232, 6-((4-((2-Isopropyl-4-phenylthiazol-5-yl)oxy)pyridin-2-yl)amino)nicotinic acid] | < 100 | < 100
CNc1nc(-c2ccc3ccccc3c2)c(Oc2ccnc(Nc3cccc(S(N)(=O)=O)c3)c2)s1 [A-233, 3-((4-((2-(Methylamino)-4-(naphthalen-2-yl)thiazol-5-yl)oxy)pyridin-2-yl)amino)benzenesulfonamide] | > 100 | > 100
Nc1nc(-c2ccc3ccccc3c2)c(Oc2ccnc(Nc3cccc(S(N)(=O)=O)c3)c2)s1 [A-234, 3-((4-((2-Amino-4-(naphthalen-2-yl)thiazol-5-yl)oxy)pyridin-2-yl)amino)benzenesulfonamide] | > 100 | > 100
CN(C)c1nc(-c2ccc3ccccc3c2)c(Oc2ccnc(Nc3cccc(S(N)(=O)=O)c3)c2)s1 [A-235, 3-((4-((2-(Dimethylamino)-4-(naphthalen-2-yl)thiazol-5-yl)oxy)pyridin-2-yl)amino)benzenesulfonamide] | > 100 | > 100
Cc1nc(-c2ccccc2)c(Oc2ccnc(Nc3cccc(S(N)(=O)=O)c3)n2)s1 [A-238, 3-((4-((2-Methyl-4-phenylthiazol-5-yl)oxy)pyrimidin-2-yl)amino)benzenesulfonamide] | < 100 | < 100
Cc1cccc(-c2nc(N)sc2Oc2ccnc(Nc3ccc(C(=O)O)cc3)c2)n1 [A-248, 4-((4-((2-Amino-4-(6-methylpyridin-2-yl)thiazol-5-yl)oxy)pyridin-2-yl)amino)benzoic acid] | < 100 | > 100
